Measured values from patent publication US20130071400A1, “LINGO binding molecules and Pharmaceutical Use Thereof” (NOVARTIS AG, priority 2006, published 2013).

Test system: postnatal day 7 rat cerebellar granule neurons (CGN)
Test: Neurite outgrowth inhibition assay on spinal cord myelin
Type: cell-based
Protocol: A) P7 CGN cells are incubated for 16 hr on wells coated without spinal cord myelin (no SC, white bars) or wells coated with spinal cord myelin in the absence (SC, red bars) or presence of anti-LINGO-1 IgG4 antibodies, a control anti-lysozyme IgG4 antibody 3207 (green bars) or […] of the ROCK inhibitor Y27632 (yellow bar). […] The experiment is performed in three 96 well plates with an SC and no SC condition per plate to which the effects of the antibodies on that plate are compared and mean neurite length per neuron (μm) is calculated for 500 neurons per well in replicates of 10. The percentage inhibition (white text) is calculated as the percentile difference in mean neurite length/neuron between cells plated on wells coated with and without SC. The percentage disinhibition (black italic text) is calculated as the difference in mean neurite length between cells plated on SC in the presence and absence of anti-LINGO-1 antibody as a percentile of the difference between cells plated on wells coated with and without SC. *p<0.05, **p<0.01 (one way ANOVA, Holm-Sidak comparison to mean neurite length/neuron for cells plated on spinal cord myelin in the absence of antibody).
A) P7 CGN cells are incubated for 8 hr on wells coated without spinal cord myelin (no SC, white bars) or wells coated with spinal cord myelin in the absence (SC, red bars) or presence of anti-LINGO-1 IgG4 antibodies or a control anti-lysozyme IgG4 antibody 3207. The experiment is performed in three 96 well plates with an SC and no SC condition per plate to which the effects of the antibodies on that plate are compared and mean neurite length per neuron (μm) is calculated for 500 neurons per well in replicates of 10. The percentage inhibition (white text) and disinhibition (black italic text) is calculated as above. **p<0.01 (one way ANOVA, Holm-Sidak comparison to mean neurite length/neuron for cells plated on spinal cord myelin in the absence of antibody).
P7 CGN cells are incubated for 8 hr on wells coated without spinal cord myelin (no SC) or wells coated with spinal cord myelin in the absence (SC) or presence of the indicated concentrations of anti-LINGO-1 IgG4 antibodies 4784 or 4785, a control anti-lysozyme IgG4 antibody 3207 or 1 μM Y27632 (ROCK). The experiment is performed in three 96 well plates with an SC and no SC condition per plate to which the effects of the antibodies on that plate are compared and mean neurite length per neuron (μm) is calculated for 500 neurons per well in replicates of 10. The percentage inhibition (white text) and disinhibition (black italic text) is calculated as above. *p<0.05, **p<0.01 (one way ANOVA, Holm-Sidak comparison to mean neurite length/neuron for cells plated on spinal cord myelin in the absence of antibody). […]

Compound: C[C@@H](N)[C@H]1CC[C@H](C(=O)Nc2ccncc2)CC1 [Y27632, reference compound]
- disinhibition of spinal cord myelin (1 μM Y27632, 8 hr incubation (FIG. 4)): 65-74%
- disinhibition of spinal cord myelin (neurite outgrowth) (1 μm Y27632, 16 hr incubation (FIG. 2), compared to 4784 and 4785): greater level of disinhibition
